Experimental data: publication PMC5363837 (Circulation, 2017)
Bridge positions count the residues as written; N and C are the ends. Ends that are not written are not given here. Peptide text beside a SMILES is read from it.

What was measured:
human apelin receptor [1] = target: T1, human apelin receptor (Homo sapiens, UniProt P35414); test: Competition binding in CHO-K1 cells expressing the human apelin receptor (Cerep); set-up: host or cells: CHO-K1
T1 sequence (P35414 1-380): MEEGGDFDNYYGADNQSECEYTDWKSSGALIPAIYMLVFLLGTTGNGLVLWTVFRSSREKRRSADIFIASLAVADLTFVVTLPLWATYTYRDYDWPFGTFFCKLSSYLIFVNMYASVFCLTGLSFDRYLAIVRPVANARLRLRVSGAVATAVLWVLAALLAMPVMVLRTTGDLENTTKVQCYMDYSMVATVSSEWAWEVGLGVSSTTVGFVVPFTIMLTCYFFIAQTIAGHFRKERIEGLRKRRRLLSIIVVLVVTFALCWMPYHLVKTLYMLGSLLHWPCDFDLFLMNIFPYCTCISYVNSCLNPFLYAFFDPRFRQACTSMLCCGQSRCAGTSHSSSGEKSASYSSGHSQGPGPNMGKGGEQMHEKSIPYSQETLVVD
Method: Comptetition Binding Experiments
(§1) For structure activity studies competition binding experiments were conductedin triplicate in
(§2) homogenate of pooled human LV from cardiom yopathy patients as previousl y described 1.
(§3) Homogenate of human LV wa s incubat ed for 90 min with 0.1nmol/L [Glp 65,Nle75, T yr 77]
(§4) (0.5pmol/ L-10μmol/L) ( n=3 each). Non- specific binding was defined using 1μmol/L
(§5) Equilibrium was broken b y centrifugation (20,000g for 10 min, 4 °C). Pellets
(§6) were washed with Tris-H Cl buffer (50 mmol/ L, pH 7.4, 4 °C), re-centrifuged and bound
(§7) radioactivity in final pellets counted. Data from triplicate experiments wer e anal yz ed using th e
(§8) iterative non-linear curve fitting programs EBDA and LIGAND (KELL package, Biosoft, UK)
(§9) or GraphPad Prism6 and to derive values of affinit y (ex pressed as the –log 10 of the dissociation
constant (pKi ±sem) ) and recepto r densit y (BM AX ± sem).The pK i and B M AX values for the thr ee

human apelin receptor [2] = target: T1, human apelin receptor; test: Competition binding, [125I]apelin-13, homogenate of human left ventricle; conditions: read-out: pKi in human LV (converted)
Method: as §1, §2, §3
[125 I] apelin-13 in assa y buffer (mmol/ L: Tris 50, MgCl2 5, pH 7.4, 22 °C), in the presence of
as §4, §5, §6, §7, §8, §9

human apelin receptor [3] = target: T1, human apelin receptor; test: Receptor internalization assay (DiscoveRx), U2OS cells; assay type: cell-based
Description: (§10) Inhibition of cAMP accumulation, β-arrestin recruitment, and receptor internalization assays were used to determine values of potency (pD2 [–log10 EC50]) and maximum response (EMAX). pD2 values were compared by using 1-way ANOVA with Tukey multiple comparison.
Responses measured in r elative light units were fitted to 4 parameter logistic
concentration response curves in GraphPad Prism 6 (La J olla, CA, USA) and values of
potenc y,pD 2 ( -log10 EC 50 (where EC 50 is the concentration producing half maximal response) ),
and maximum response (EM AX ) w ere calculat ed fo r each compound.Data were subs equentl y
Respon ses measured in relatve li ght units wer e fitted
(§11) to 4 parameter logistic concentration response curves in GraphPad Prism 6 (La J olla, CA,
(§12) USA) and values o f pD 2 ( -log10 EC 50) and maximum response (EM AX ) w er e calcul at ed for each
(§13) used as the refer ence ago nists in each assa y.
Internalisation a ssa ys w ere co nduct ed as previously des cribed1.U2OS cells artificially
ex pressing the human ap elin recepto r wer e seeded in Cell Plating medium in 96 -well plates and
incubated for 48 hours at 37 °C in 5% CO 2.
the cells for 3 hours at 37 °C. This was followed b y incubation with the detection reagents fo r
90 minutes at room temperature and luminescen ce readin g .D at a were an al y s ed as described
for the β -arrestin assa y .

human apelin receptor [4] = target: T1, human apelin receptor; test: Competition binding of ELA-21 in normal and PAH human LV and RV homogenate; set-up: host or cells: CHO-K1; conditions: pooled homogenate, mean±SEM, n=3
Method: Experiments were conducted in homogenate of human ventricle or Chinese hamster ovary (CHO)-K1 cells expressing the human apelin receptor.
To investigate whether the affinit y of ELA peptides or the density of ELA binding sites is altered in human PAH competition binding experiments were repeated as described above using ELA-21 as the com peting li gand in LV and RV from pooled homogenate from six patients transplanted for PAH and LV and RV from six normal hearts as controls. Datafrom triplicate experiments were anal yzed usin g the iter ative non -linear curve fitting programs EBDA and LIGAND (KELL package, Biosoft, UK) to determine values of affinity (K D) and recepto r densit y (B M AX ). Values were compared for LV and RV between P AH and controls using Student’s 2- tailed t -test. […]

human apelin receptor [5] = target: T1, human apelin receptor; test: Inhibition of forskolin-induced cAMP accumulation (DiscoveRx), CHO-K1 cells; assay type: cell-based; set-up: host or cells: CHO-K1
human apelin receptor [6] = target: T1, human apelin receptor; test: β-arrestin recruitment assay (DiscoveRx), CHO-K1 cells; assay type: cell-based; set-up: host or cells: CHO-K1
Description: as §10
β-Arrestin ass a ys wer e conducted as previousl y described1.CHO- K1 cells artificially
ex pressing the human ap elin recepto r wer e seeded in C ell P lating medium into 96-well plates
3μmol/L ) wer e diluted in Cell Plating mediumand added to the cells for 90 minutes at 37 °C..
Detection reagents were then added fo ra 2- hour incubation at room temperature
followed b y chemiluminescence r eadin g. Respon ses measured in relatve li ght units wer e fitted
as §11, §12, §13

[7] = target: T2, human apelin receptor expressed in CHO-K1 cells (human, UniProt P35414 1-380); test: cell-based or functional assay
T2 sequence (looked up): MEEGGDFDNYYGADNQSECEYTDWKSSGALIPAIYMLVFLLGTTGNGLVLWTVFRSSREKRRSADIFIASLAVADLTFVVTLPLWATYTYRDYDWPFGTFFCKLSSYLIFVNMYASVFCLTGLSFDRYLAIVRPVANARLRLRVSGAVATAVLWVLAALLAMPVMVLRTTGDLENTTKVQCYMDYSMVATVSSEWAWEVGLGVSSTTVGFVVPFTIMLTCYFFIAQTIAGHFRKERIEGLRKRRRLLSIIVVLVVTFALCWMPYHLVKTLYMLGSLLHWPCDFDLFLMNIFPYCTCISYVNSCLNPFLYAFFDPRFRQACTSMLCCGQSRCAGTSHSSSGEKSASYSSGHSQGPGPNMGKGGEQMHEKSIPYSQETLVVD

[8] = target: T2, human apelin receptor expressed in …; test: radioligand binding; competition binding in CHO-K1 cells expressing the human apelin receptor; conditions: one partner purified

## CSCC[C@@H]1NC(=O)[C@@H](N)CSSC[C@@H](C(=O)N[C@@H](CCCNC(=N)N)C(=O)N[C@H](C(=O)N2CCC[C@H]2C(=O)N[C@@H](Cc2ccccc2)C(=O)N2CCC[C@H]2C(=O)O)C(C)C)NC(=O)[C@H](Cc2c[nH]cn2)NC(=O)[C@H](CC(C)C)NC(=O)[C@@H]2CCCN2C1=O [cyclo[1–6]ELA-11] (HELM PEPTIDE1{C.M.P.L.H.C.R.V.P.F.P}$PEPTIDE1,PEPTIDE1,1:R3-6:R3$$$V2.0; N-terminus and C-terminus assumed)
Human apelin receptor [1]
  fold drop in affinity versus ELA-32, ELA-21 and ELA-14: 100 fold

## CSCC[C@H](NC(=O)[C@@H]1CSSC[C@H](NC(=O)[C@H](CC(N)=O)NC(=O)[C@H](Cc2c[nH]cn2)NC(=O)[C@H](CCCCN)NC(=O)[C@H](CCCNC(=N)N)NC(=O)[C@@H](N)CC(C)C)C(=O)N[C@@H](CC(C)C)C(=O)N[C@@H](CCC(N)=O)C(=O)N[C@@H](CCCNC(=N)N)C(=O)N[C@@H](CCCNC(=N)N)C(=O)N1)C(=O)N1CCC[C@H]1C(=O)N[C@@H](CC(C)C)C(=O)N[C@@H](Cc1c[nH]cn1)C(=O)N[C@@H](CO)C(=O)N[C@@H](CCCNC(=N)N)C(=O)N[C@H](C(=O)N1CCC[C@H]1C(=O)N[C@@H](Cc1ccccc1)C(=O)N1CCC[C@H]1C(=O)O)C(C)C [ELA-21]
Human apelin receptor [2]
  Ki: 3020 pM
Human apelin receptor [3]; U2OS
  Emax: 96 ± 2%
Human apelin receptor [3]; U2OS cells, 3 hours, 37°C, mean±SEM, n=3-5 assays, 2-6 replicates, read-out: Internalization pD2 (converted)
  EC50: 282 pM
Human apelin receptor [4]; PAH human left ventricle, read-out: pKi, LV PAH (converted)
  Ki: 347 pM
Human apelin receptor [4]; PAH human right ventricle, read-out: pKi, RV PAH (converted)
  Ki: 501 pM
Human apelin receptor [4]; normal human left ventricle, read-out: pKi, LV normal (converted)
  Ki: 490 pM
Human apelin receptor [4]; normal human right ventricle, read-out: pKi, RV normal (converted)
  Ki: 1050 pM
Human apelin receptor [5]; CHO-K1
  Emax: 101 ± 1%
Human apelin receptor [5]; read-out: cAMP pD2 (converted)
  EC50: 372 pM
Human apelin receptor [6]; CHO-K1
  Emax: 102 ± 1%
Human apelin receptor [6]; read-out: β-Arrestin pD2 (converted)
  EC50: 132 pM

## CMPLHCRVPFP (disulfide 1-6) [cyclo[1–6]ELA-11]
[7]
  cAMP assay, pD2 (-log10 EC50): 9.42
  β-arrestin recruitment assay, pD2 (-log10 EC50): 7.67
[8]
  pKi: 7.27
